From patent US20050137239A1, “Thiazole derivatives” (priority 2003, published 2005)

Columns and labels:
[1] = biological target: T1, glucose oxidase (Aspergillus niger, UniProt P13006); experiment: glucose oxidase inhibition, commercially available glucose oxidase kit; type: biochemical
T1 construct: purchased
Excerpt: This example describes the effectiveness of a compound of the invention for inhibiting the enzyme glucose oxidase.
To test the efficacy of 2-amino-4,5-dimethylthiazole HCl for the inhibition of glucose oxidase, a commercially available glucose oxidase kit was used.

[2] = test system: cross-links representative of AGEs; experiment: AGE crosslink breaking, sandwich enzyme-linked immunoabsorbent assay; conditions: pre-formed protein-sugar cross-links in multi-well plates; buffer control
Method: This example describes the efficacy of a compound of the invention for breaking crosslinks associated with AGEs using a sandwich enzyme-linked immunoabsorbent assay.
A mixture of protein and sugar was incubated to form cross-links representative of AGEs and was placed in multi-well plates. The plates were then treated with either 2-amino-4,5-dimethylthiazole HCl or buffer. After treatment, the plates were rinsed to remove any free protein liberated by cross-link breakage. An antibody reactive to the protein was then added to the plates to provide quantitative levels of protein within the plate.

[3] = test system: AGE formation; experiment: AGE formation inhibition: protein and sugar incubated at 37° C., gel formation; conditions: control tube forms a gel
Method: This example describes the efficacy of a compound of the invention for inhibiting AGE formation.
A control tube, containing protein and sugar, forms a gel with little or no remaining liquid when incubated at 37° C. Such a gel is indicative of extensive crosslinking associated with glycation.

T1 sequence (P13006 17-605, species assumed): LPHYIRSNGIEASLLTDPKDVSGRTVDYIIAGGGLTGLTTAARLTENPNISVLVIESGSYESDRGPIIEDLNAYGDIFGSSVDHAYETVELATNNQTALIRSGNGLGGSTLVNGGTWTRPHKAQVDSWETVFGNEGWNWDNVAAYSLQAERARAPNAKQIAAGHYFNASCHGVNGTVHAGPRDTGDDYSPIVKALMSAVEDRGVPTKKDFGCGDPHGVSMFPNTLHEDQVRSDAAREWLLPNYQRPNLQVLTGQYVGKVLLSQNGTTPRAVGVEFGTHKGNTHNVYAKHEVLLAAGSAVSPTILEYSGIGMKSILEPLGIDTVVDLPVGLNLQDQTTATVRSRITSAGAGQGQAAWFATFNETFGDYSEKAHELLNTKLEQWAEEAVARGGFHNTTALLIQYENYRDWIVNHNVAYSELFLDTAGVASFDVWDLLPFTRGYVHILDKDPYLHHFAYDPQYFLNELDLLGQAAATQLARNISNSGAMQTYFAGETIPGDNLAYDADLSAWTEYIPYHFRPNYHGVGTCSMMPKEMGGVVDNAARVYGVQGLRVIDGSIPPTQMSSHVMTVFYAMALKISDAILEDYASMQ

Q: How did the “reduction of production of H2O2 as compared to a control sample” value [1] turn out when `Cc1nc(N)sc1C.Cl` [2-amino-4,5-dimethylthiazole HCl, 2-amino-4,5-dimethylthiazole hydrochloride] was run?
A: greater than 60%

Q: And the “antibody bound in the plate as compared to the control plate” value [2]?
A: less antibody bound

Q: And the “state of protein and sugar mixture (gel indicates crosslinking associated with glycation)” value [3]?
A: remained liquid
